{"source": "patent US10597388B2", "about": "“Pyridazinone herbicides” (FMC CORPORATION, priority 2014, dated 2020)", "test_in_all_cases": "Test E greenhouse herbicide test, pre- and postemergence", "type_in_all_cases": "in vivo", "settings_in_all_cases": "Preemergence", "key": {"[1]": {"system": "dayflower (Virginia (VA) dayflower, Commelina virginica)", "method_in_brief": "(§1)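 Visual rating vs untreated controls, 0 = no effect, 100 = complete control, after 14–21 d greenhouse. Pre: seeded silt loam treated with surfactant-containing solvent formulation. Post: 1–4-leaf plants (2–18 cm) in peat/vermiculite medium.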"}, "[2]": {"system": "beggarticks (hairy beggarticks, Bidens pilosa)", "method_in_brief": "as §1"}, "[3]": {"system": "lambsquarters (Chenopodium album)", "method_in_brief": "as §1"}, "[4]": {"system": "Italian ryegrass (Lolium multiflorum)", "method_in_brief": "as §1"}, "[5]": {"system": "foxtail, green (green foxtail, Setaria viridis)", "method_in_brief": "as §1"}, "[6]": {"system": "nutsedge, yellow (yellow nutsedge, Cyperus esculentus)", "method_in_brief": "as §1"}, "[7]": {"system": "corn (Zea mays)", "method_in_brief": "as §1"}, "[8]": {"system": "velvetleaf (Abutilon theophrasti)", "method_in_brief": "as §1"}, "[9]": {"system": "sandbur (southem sandbur, Cenchrus echinatus)", "method_in_brief": "as §1"}, "[10]": {"system": "kochia (Kochia scoparia)", "method_in_brief": "as §1"}, "[11]": {"system": "waterhemp (common waterhemp, Amaranthus rudis)", "method_in_brief": "as §1"}, "[12]": {"settings": "62 g ai/ha, scale 0 to 100 (0 no effect, 100 complete control)"}, "[13]": {"settings": "31 g ai/ha, scale 0 to 100, 0 no effect, 100 complete control"}, "[14]": {"settings": "125 g ai/ha, visual, scale 0 no effect to 100 complete control"}, "[15]": {"settings": "125 g ai/ha, scale 0 to 100 (0 no effect, 100 complete control)"}, "[16]": {"settings": "250 g ai/ha, visual, scale 0 no effect to 100 complete control"}}}
{"smiles": "Cc1cc(C)c2ccccc2c1-c1c(O)c(C)nn(C)c1=O", "note": "[Compound 21]", "values": [{"measurement": "Plant response rating, Dayflower, VA", "setting": "[1]; [12]", "result": 60}, {"measurement": "Plant response rating, Dayflower, VA", "setting": "[1]; [13]", "result": 80}, {"measurement": "Plant response rating, Dayflower, VA", "setting": "[1]; [14]", "result": 80}, {"measurement": "Plant response rating, Beggarticks", "setting": "[2]; [12]", "result": 100}, {"measurement": "Plant response rating, Beggarticks", "setting": "[2]; [13]", "result": 100}, {"measurement": "Plant response rating, Beggarticks", "setting": "[2]; [14]", "result": 100}, {"measurement": "Plant response rating, Lambsquarters", "setting": "[3]; [12]", "result": 100}, {"measurement": "Plant response rating, Lambsquarters", "setting": "[3]; [13]", "result": 100}, {"measurement": "Plant response rating, Lambsquarters", "setting": "[3]; [14]", "result": 100}, {"measurement": "Plant response rating, Ryegrass, Italian", "setting": "[4]; [12]", "result": 100}, {"measurement": "Plant response rating, Ryegrass, Italian", "setting": "[4]; [15]", "result": 100}, {"measurement": "Plant response rating, Ryegrass, Italian", "setting": "[4]; [13]", "result": 100}, {"measurement": "Plant response rating, Foxtail, Green", "setting": "[5]; [12]", "result": 100}, {"measurement": "Plant response rating, Foxtail, Green", "setting": "[5]; [13]", "result": 95}, {"measurement": "Plant response rating, Foxtail, Green", "setting": "[5]; [14]", "result": 100}, {"measurement": "Plant response rating, Nutsedge, Yellow", "setting": "[6]; [12]", "result": 75}, {"measurement": "Plant response rating, Nutsedge, Yellow", "setting": "[6]; [15]", "result": 80}, {"measurement": "Plant response rating, Nutsedge, Yellow", "setting": "[6]; [13]", "result": 0}, {"measurement": "Plant response rating, Corn", "setting": "[7]; [12]", "result": 0}, {"measurement": "Plant response rating, Corn", "setting": "[7]; [13]", "result": 0}, {"measurement": "Plant response rating, Corn", "setting": "[7]; [14]", "result": 30}, {"measurement": "Plant response rating, Velvetleaf", "setting": "[8]; [12]", "result": 90}, {"measurement": "Plant response rating, Velvetleaf", "setting": "[8]; [15]", "result": 90}, {"measurement": "Plant response rating, Velvetleaf", "setting": "[8]; [13]", "result": 80}, {"measurement": "Plant response rating, Sandbur", "setting": "[9]; [12]", "result": 80}, {"measurement": "Plant response rating, Sandbur", "setting": "[9]; [15]", "result": 90}, {"measurement": "Plant response rating, Sandbur", "setting": "[9]; [13]", "result": 80}, {"measurement": "Plant response rating, Kochia", "setting": "[10]; [12]", "result": 0}, {"measurement": "Plant response rating, Kochia", "setting": "[10]; [13]", "result": 0}, {"measurement": "Plant response rating, Kochia", "setting": "[10]; [14]", "result": 65}, {"measurement": "Plant response rating, Waterhemp", "setting": "[11]; [12]", "result": 95}, {"measurement": "Plant response rating, Waterhemp", "setting": "[11]; [15]", "result": 100}, {"measurement": "Plant response rating, Waterhemp", "setting": "[11]; [13]", "result": 95}]}
{"smiles": "Cc1ccc2ccccc2c1-c1c(O)c(I)nn(C)c1=O", "note": "[Compound 29]", "values": [{"measurement": "Plant response rating, Dayflower, VA", "setting": "[1]; [12]", "result": 0}, {"measurement": "Plant response rating, Dayflower, VA", "setting": "[1]; [13]", "result": 0}, {"measurement": "Plant response rating, Dayflower, VA", "setting": "[1]; [14]", "result": 10}, {"measurement": "Plant response rating, Dayflower, VA", "setting": "[1]; [16]", "result": 60}, {"measurement": "Plant response rating, Beggarticks", "setting": "[2]; [12]", "result": 98}, {"measurement": "Plant response rating, Beggarticks", "setting": "[2]; [13]", "result": 80}, {"measurement": "Plant response rating, Beggarticks", "setting": "[2]; [14]", "result": 100}, {"measurement": "Plant response rating, Beggarticks", "setting": "[2]; [16]", "result": 100}, {"measurement": "Plant response rating, Lambsquarters", "setting": "[3]; [12]", "result": 100}, {"measurement": "Plant response rating, Lambsquarters", "setting": "[3]; [13]", "result": 100}, {"measurement": "Plant response rating, Lambsquarters", "setting": "[3]; [14]", "result": 100}, {"measurement": "Plant response rating, Lambsquarters", "setting": "[3]; [16]", "result": 98}, {"measurement": "Plant response rating, Ryegrass, Italian", "setting": "[4]; [12]", "result": 75}, {"measurement": "Plant response rating, Ryegrass, Italian", "setting": "[4]; [15]", "result": 95}, {"measurement": "Plant response rating, Ryegrass, Italian", "setting": "[4]; [13]", "result": 65}, {"measurement": "Plant response rating, Ryegrass, Italian", "setting": "[4]; [16]", "result": 100}, {"measurement": "Plant response rating, Foxtail, Green", "setting": "[5]; [12]", "result": 75}, {"measurement": "Plant response rating, Foxtail, Green", "setting": "[5]; [13]", "result": 65}, {"measurement": "Plant response rating, Foxtail, Green", "setting": "[5]; [14]", "result": 90}, {"measurement": "Plant response rating, Foxtail, Green", "setting": "[5]; [16]", "result": 100}, {"measurement": "Plant response rating, Nutsedge, Yellow", "setting": "[6]; [12]", "result": 0}, {"measurement": "Plant response rating, Nutsedge, Yellow", "setting": "[6]; [15]", "result": 30}, {"measurement": "Plant response rating, Nutsedge, Yellow", "setting": "[6]; [13]", "result": 0}, {"measurement": "Plant response rating, Nutsedge, Yellow", "setting": "[6]; [16]", "result": 70}, {"measurement": "Plant response rating, Corn", "setting": "[7]; [12]", "result": 0}, {"measurement": "Plant response rating, Corn", "setting": "[7]; [13]", "result": 0}, {"measurement": "Plant response rating, Corn", "setting": "[7]; [14]", "result": 0}, {"measurement": "Plant response rating, Corn", "setting": "[7]; [16]", "result": 0}, {"measurement": "Plant response rating, Velvetleaf", "setting": "[8]; [12]", "result": 95}, {"measurement": "Plant response rating, Velvetleaf", "setting": "[8]; [15]", "result": 100}, {"measurement": "Plant response rating, Velvetleaf", "setting": "[8]; [13]", "result": 70}, {"measurement": "Plant response rating, Velvetleaf", "setting": "[8]; [16]", "result": 100}, {"measurement": "Plant response rating, Sandbur", "setting": "[9]; [12]", "result": 75}, {"measurement": "Plant response rating, Sandbur", "setting": "[9]; [15]", "result": 90}, {"measurement": "Plant response rating, Sandbur", "setting": "[9]; [13]", "result": 75}, {"measurement": "Plant response rating, Sandbur", "setting": "[9]; [16]", "result": 90}, {"measurement": "Plant response rating, Kochia", "setting": "[10]; [12]", "result": 0}, {"measurement": "Plant response rating, Kochia", "setting": "[10]; [13]", "result": 0}, {"measurement": "Plant response rating, Kochia", "setting": "[10]; [14]", "result": 25}, {"measurement": "Plant response rating, Kochia", "setting": "[10]; [16]", "result": 70}, {"measurement": "Plant response rating, Waterhemp", "setting": "[11]; [12]", "result": 90}, {"measurement": "Plant response rating, Waterhemp", "setting": "[11]; [15]", "result": 98}, {"measurement": "Plant response rating, Waterhemp", "setting": "[11]; [13]", "result": 80}, {"measurement": "Plant response rating, Waterhemp", "setting": "[11]; [16]", "result": 100}]}
